This is an account of results in ChEMBL document CHEMBL4842343, “1,10-Seco-Eudesmane sesquiterpenoids as a new type of anti-neuroinflammatory agents by suppressing TLR4/NF-κB/MAPK pathways” (Eur J Med Chem, 2021).

Series [1] has as its system BV-2. The series is described as follows: Cytotoxicity against LPS-stimulated mouse BV-2 cells assessed as reduction in cell viability at 20 uM measured after 24 hrs by MTT assay relative to control. The format is cell-based. Conditions: bv-2, 24 h; call rule not given here.
Series [2] in a line: Inhibition of LPS-induced NO production in mouse BV-2 cells incubated for 24 hrs by Griess reagent based assay. The format is functional, cell-based.
Series [3] in a line: Effective permeability of the compound in PBS/EtOH buffer (9:1) at […] after 10 hrs by HPLC-UV based PAMPA-BBB assay. Conditions: read-out: permeability. The series is classed as ADME.
Series [4] is described as follows: Inhibition of iNOS expression in LPS-stimulated mouse BV-2 cells at 10 uM measured after 24 hrs by western blot analysis relative to control. The series is classed as functional.
The subject of series [5] is BV-2. The series is described as follows: Antineuroinflammatory activity in LPS- stimulated mouse BV-2 cells assessed as fold increase in HO-1 expression at 10 uM measured after 24 hrs by immunoblotting analysis relative to control. The series is classed as functional.
[6] abbreviates: Mus musculus, BV-2, 24 h, read-out: EC50.

`O=c1c(O)c(-c2ccc(O)c(O)c2)oc2cc(O)cc(O)c12` [QUERCETIN]: the Activity in the series with BV-2 [1] is listed as 98.1%. Also, the EC50 in series [2] (setting [6]) is 10.5 µM.
With `C=C1C(=O)O[C@@H]2CC(CN(CC)CC)=C([C@@H](C)CCCOC(C)=O)[C@@H](OC(C)=O)[C@H]12`, the Activity in the series with BV-2 [1] is given as 94.1%. Besides, the half-maximal effective concentration (EC50) in series [2] (setting [6]) amounted to 14.6 µM.
In the case of `C=C1C(=O)O[C@H]2[C@@H]1[C@H](OC(C)=O)C([C@@H](C)CCCOC(C)=O)=C(CBr)[C@@H]2Br`, in the series on BV-2 [1], the Activity was 96%. Moreover, the EC50 in series [2] (setting [6]) was determined as 11.1 µM.
`C=C1C(=O)O[C@@H]2CC(C)=C([C@@H](C)CCCOC(C)=O)[C@@H](O)[C@H]12`: in series [3], the Papp at 10 h is 7.5 ×10⁻⁶ cm/s. For the same molecule, the Activity with BV-2 [1] amounted to 99.5%. Besides, the concentration giving a half-maximal response (EC50) in series [2] (setting [6]) was 12.5 µM.
Consider `CC(=O)OCCC[C@H](C)C1=C(C)C[C@H]2OC(=O)C(Cc3ccc(O)cc3)=C2[C@@H]1O`, for which the Activity with BV-2 [1] is listed as 90.1%. Moreover, the concentration for a half-maximal effect (EC50) in series [2] (setting [6]) was 15.9 µM.
For `C=C1C(=O)O[C@@H]2C=C(C)C(Cl)([C@@H](C)CCCOC(C)=O)[C@@H](OC(C)=O)[C@H]12` (stereo partly specified), in that order: 90.8% and 2 µM.
The corresponding values for `C=C1C(=O)O[C@@H]2CC(=C)C(Cl)([C@@H](C)CCCOC(C)=O)[C@@H](OC(C)=O)[C@H]12` (stereo partly specified) are 90.9% and 1 µM.
With `C#Cc1ccc(-c2cn([C@@H]3C(C)=C([C@@H](C)CCCOC(C)=O)[C@@H](OC(C)=O)[C@@H]4C(=C)C(=O)O[C@@H]43)nn2)cc1`, the Activity in the series on BV-2 [1] turned out to be 38.5%. In series [2] (bv-2), the half-maximal effective concentration (EC50) entry is on record as “Not Active”.
Take `C=C1C(=O)O[C@@H]2CC(CN3CCOCC3)=C([C@@H](C)CCCOC(C)=O)[C@@H](OC(C)=O)[C@H]12`: the Activity in the series with BV-2 [1] came to 91.3%. Also, in series [2] (setting [6]), the EC50 worked out at 14.4 µM.
For `C=C1C(=O)O[C@H]2[C@@H]1[C@H](OC(C)=O)C([C@@H](C)CCCOC(C)=O)=C(C)[C@H]2N=[N+]=[N-]`, in that order: 93.2% and 6.7 µM.
With `C=C1C(=O)O[C@H]2[C@@H]1[C@H](OC(C)=O)C([C@@H](C)CCCOC(C)=O)=C(C)[C@H]2N`, in the series with BV-2 [1], the Activity came out at 90.9%. Moreover, in series [2] (setting [6]), the concentration giving a half-maximal response (EC50) stood at 3.8 µM.
For the molecule `C=C1C[C@H]2OC(=O)C(=C)[C@H]2C=C1[C@@H](C)CCCOC(C)=O`, the Activity with BV-2 [1] is reported as 54.2%. For the same molecule, the concentration giving a half-maximal response (EC50) result in series [2] (bv-2) is “Not Active”.
With `CC(=O)OCCC[C@H](C)C1=C(C)C[C@H]2OC(=O)[C@]3(CC(c4ccc(N(C)C)cc4)=NO3)[C@H]2[C@@H]1OC(C)=O`, the Activity with BV-2 [1] is given as 9%. The EC50 in series [2] (setting [6]) amounted to 28.6 µM.
Turning to `CC(=O)OCCC[C@H](C)C1=C(C)C[C@H]2OC(=O)/C(=C/c3ccc(O)cc3)[C@H]2[C@@H]1O`, in the series on BV-2 [1], the Activity is 102.5%. The half-maximal effective concentration (EC50) in series [2] (setting [6]) turned out to be 31.5 µM.
With `CC(=O)OCCC[C@H](C)C1=C(C)C[C@H]2OC(=O)[C@]3(CC(c4ccc(F)cc4)=NO3)[C@H]2[C@@H]1OC(C)=O`, in the series on BV-2 [1], the Activity is 101.5%. Besides, in series [2] (setting [6]), the EC50 was determined as 39 µM.
For `CC(=O)OCCC[C@H](C)C1=C(C)C[C@H]2OC(=O)[C@]3(CC(c4ccccc4[N+](=O)[O-])=NO3)[C@H]2[C@@H]1OC(C)=O`, in that order: 97.1% and over 50 µM.
For `CC(=O)OCCC[C@H](C)C1=C(C)C[C@H]2OC(=O)[C@]3(CC(c4ccc5ccccc5c4)=NO3)[C@H]2[C@@H]1OC(C)=O`, in that order: 95.4% and over 50 µM.
Regarding `CC(=O)OCCC[C@H](C)C1=C(C)C[C@H]2OC(=O)[C@]3(CC(c4ccccc4Br)=NO3)[C@H]2[C@@H]1OC(C)=O`, the Activity with BV-2 [1] stood at 98.6%. Moreover, the EC50 in series [2] (setting [6]) was over 50 µM.
As for `C=C1C(=O)O[C@@H]2C[C@@]3(C)O[C@@]3([C@@H](C)CCCOC(C)=O)[C@@H](OC(C)=O)[C@H]12`, the Activity in the series with BV-2 [1] was 89.5%. In series [2] (setting [6]), the EC50 was 2.8 µM.
In the case of `NC(=O)N1c2ccccc2C=Cc2ccccc21` [CARBAMAZEPINE], the Papp at 10 h in series [3] was 10.7 ×10⁻⁶ cm/s.
With `C=C1C(=O)O[C@@H]2CC(CN3CCCC3)=C([C@@H](C)CCCOC(C)=O)[C@@H](OC(C)=O)[C@H]12`, the Activity in the series on BV-2 [1] stood at 95.2%. Further, the EC50 in series [2] (setting [6]) was 30.2 µM.
For `CC(=O)OCCC[C@H](C)C1=C(C)C[C@H]2OC(=O)[C@@H](C)[C@H]2[C@@H]1O`, the Activity in the series on BV-2 [1] was 101.2%. Also, the EC50 in series [2] (setting [6]) was over 50 µM.
The corresponding values for `C=C1C(=O)O[C@H]2[C@@H]1[C@H](OC(C)=O)C([C@@H](C)CCCOC(C)=O)=C(C)[C@@H]2c1ccccc1` are 91.7% and 4.5 µM.
As to `C=C1C(=O)O[C@@H]2CC(CN3CCCCC3)=C([C@@H](C)CCCOC(C)=O)[C@@H](OC(C)=O)[C@H]12`, the Activity with BV-2 [1] turned out to be 92.8%. The half-maximal effective concentration (EC50) in series [2] (setting [6]) is 18.4 µM.
The corresponding values for `CC(=O)OCCC[C@H](C)C1=C(C)C[C@H]2OC(=O)[C@]3(CC(c4ccccc4)=NO3)[C@H]2[C@@H]1OC(C)=O` are 96.6% and 33 µM.
For `COc1ccc(C2=NO[C@]3(C2)C(=O)O[C@@H]2CC(C)=C([C@@H](C)CCCOC(C)=O)[C@@H](OC(C)=O)[C@@H]23)cc1`, in that order: 96.5% and over 50 µM.
For `C=C1C(=O)O[C@@H]2C[C@@]3(C)O[C@@]3([C@@H](C)CCCOC(C)=O)[C@@H](O)[C@H]12`, in that order: 93.4% and 6.5 µM.
Turning to `C=C1C(=O)O[C@H]2[C@@H]1[C@H](OC(C)=O)C([C@@H](C)CCCOC(C)=O)=C(C)[C@H]2n1cc(C(=O)OC)nn1`, the Activity in the series with BV-2 [1] is listed as 63.8%. The half-maximal effective concentration (EC50) entry in series [2] (bv-2) is reported as “Not Active”.
With `C=C1C(=O)O[C@@H]2CC(C)=C([C@@H](C)CCCOC(C)=O)[C@@H](OC(C)=O)[C@H]12`, at 10 µM the inhibition in series [4] was 59.7%. Further, the Papp at 10 h in series [3] turned out to be 12.3 ×10⁻⁶ cm/s. For the same molecule, the “fold change (FC)” value with BV-2 [5] is 4. For the same molecule, in the series with BV-2 [1], the Activity was 66.5%. The EC50 in series [2] (setting [6]) amounted to 6.3 µM.
In the case of `C=C1C(=O)O[C@H]2[C@@H]1[C@H](OC(C)=O)C([C@@H](C)CCCOC(C)=O)=C(C)[C@H]2n1cc(-c2ccccc2)nn1`, in the series on BV-2 [1], the Activity came to 57.3%. Further, the EC50 result in series [2] (bv-2) was “Not Active”.
Turning to `CC(=O)OCCC[C@H](C)C1=C(C)C[C@H]2OC(=O)[C@]3(CC(c4c(F)c(F)c(F)c(F)c4F)=NO3)[C@H]2[C@@H]1OC(C)=O`, in the series with BV-2 [1], the Activity worked out at 92.2%. Moreover, in series [2] (setting [6]), the concentration for a half-maximal effect (EC50) amounted to 16.3 µM.
The corresponding values for `CC(=O)OCCC[C@H](C)C1C(C)C[C@H]2OC(=O)C(C)[C@H]2[C@@H]1O` (mixture of isomers) are 98.5% and over 50 µM.
For `COc1ccccc1C1=NO[C@]2(C1)C(=O)O[C@@H]1CC(C)=C([C@@H](C)CCCOC(C)=O)[C@@H](OC(C)=O)[C@@H]12`, in that order: 99.2% and over 50 µM.
Consider `C=C1C(=O)O[C@H]2[C@@H]1[C@H](OC(C)=O)C([C@@H](C)CCCOC(C)=O)=C(C)[C@@H]2Br`, for which the Activity with BV-2 [1] is on record as 96.1%. For the same molecule, the 50% effective concentration (EC50) in series [2] (setting [6]) turned out to be 9.1 µM.
